From publication doi:10.1101/2021.10.07.463234v2 (biorxiv, 2021) come the findings set out here.

Where a name gives a salt, the structure may show the parent alone.

One assay has as its target SARS-CoV-2 Mac1 (Severe acute respiratory syndrome coronavirus 2, UniProt P0DTD1). The assay is described as follows: biochemical. To be noted: 100 µM; inhibitor.
As a reminder, the %inhibition is the drop in the measured response relative to a control, in per cent. Higher therefore signals a response far below the control. `CC(C(=O)O)c1cccc(Oc2ccccc2)c1` (stereo not shown) [Fenoprofen Calcium]: the “%inhibition” value amounted to 9.442%.
Take `CC(=O)[C@@]1(O)CC[C@H]2[C@@H]3C[C@H](C)C4=CC(=O)C=C[C@]4(C)[C@@]3(F)[C@@H](O)C[C@@]21C` [Fluorometholone]: the “%inhibition” value is 0%.

Staying with this assay, now noted: read-out: %inhibition.
By inhibition is commonly meant the change of the read-out against control, counted positive when it falls. Take `COc1cc([C@@H]2c3cc4c(cc3[C@@H](O[C@@H]3O[C@@H]5CO[C@@H](C)O[C@H]5[C@H](O)[C@H]3O)[C@H]3COC(=O)[C@H]23)OCO4)cc(OC)c1O` [Etoposide]: the inhibition at 100 µM turned out to be 25.5%.
Same read-out and setting: as for `Cc1ccc(-c2ncc(Cl)cc2-c2ccc(S(C)(=O)=O)cc2)cn1` [Etoricoxib], the figure is 0%; as for `Cc1cc(C#N)cc(C)c1Oc1nc(Nc2ccc(C#N)cc2)nc(N)c1Br` [Etravirine (TMC125)], 5.29%; as for `CCOC(=O)/C=C(C)/C=C/C=C(C)/C=C/c1c(C)cc(OC)c(C)c1C` [Etretinate], 24.9%.
On to `Cc1cc(C)c2c(c1)[C@@H](N(Cc1cc(C(F)(F)F)cc(C(F)(F)F)c1)c1nnn(C)n1)CCCN2C[C@H]1CC[C@H](C(=O)O)CC1` [Evacetrapib (LY2484595)], for which the inhibition at 100 µM worked out at 28.7%.
Still for that read-out and setting: as for `CO[C@H]1C[C@@H]2CC[C@@H](C)[C@@](O)(O2)C(=O)C(=O)N2CCCC[C@H]2C(=O)O[C@H]([C@H](C)C[C@@H]2CC[C@@H](OCCO)[C@H](OC)C2)CC(=O)[C@H](C)/C=C(\C)[C@@H](O)[C@@H](OC)C(=O)[C@H](C)C[C@H](C)/C=C/C=C/C=C/1C` [Everolimus (RAD001)], the figure is 11.2%; as for `Cn1c(COP(=O)(NCCBr)NCCBr)cnc1[N+](=O)[O-]` [Evofosfamide (TH-302)], 12.7%; as for `C=C1C[C@@H]2[C@H](CC[C@]3(C)C(=O)CC[C@@H]23)[C@@]2(C)C=CC(=O)C=C12` [Exemestane], 11.1%.
On the same count and under the same terms, under `O=C1[C@H](CC[C@H](O)c2ccc(F)cc2)[C@@H](c2ccc(O)cc2)N1c1ccc(F)cc1` [Ezetimibe] stands 5.79%; under `CC(=O)OCC(CCn1cnc2cnc(N)nc21)COC(C)=O` [Famciclovir], 0%.
The same measure, in the same setting: as for `NC(N)=Nc1nc(CSCC/C(N)=N/S(N)(=O)=O)cs1` [Famotidine], the figure is 1.86%; as for `C[C@@H](O)[C@H]1C(=O)N2C(C(=O)O)=C([C@H]3CCCO3)S[C@H]12` [Faropenem Sodium], 0%; as for `O=S(=O)(c1cccc2cnccc12)N1CCCNCC1` [Fasudil (HA-1077) HCl], 0%.
Turning to `NC(=O)c1nc(F)cnc1O` [Favipiravir (T-705)], the inhibition at 100 µM is 0.111%.
On the same count and under the same terms, as for `Cc1nc(-c2ccc(OCC(C)C)c(C#N)c2)sc1C(=O)O` [Febuxostat], the figure is 4.8%.
The same measure, in the same setting: under `Cc1cnc(Nc2ccc(OCCN3CCCC3)cc2)nc1Nc1cccc(S(=O)(=O)NC(C)(C)C)c1` [Fedratinib (SAR302503, TG101348)] stands 17.5%; under `NC(=O)OCC(COC(N)=O)c1ccccc1` [Felbamate], 22%.
Same read-out and setting: as for `O=C(O)CCC(=O)c1ccc(-c2ccccc2)cc1` [Fenbufen], the figure is 0%; as for `CCCCC(O)c1ccccc1` (stereo not shown) [Fenipentol], 4.29%.
Turning to `CC(C)OC(=O)C(C)(C)Oc1ccc(C(=O)c2ccc(Cl)cc2)cc1` [Fenofibrate], the inhibition at 100 µM was 28.9%.
Same read-out and setting: under `CC(C)(Oc1ccc(C(=O)c2ccc(Cl)cc2)cc1)C(=O)O` [Fenofibric acid] stands 0%; under `Oc1ccc(C2CNCCc3c2cc(O)c(O)c3Cl)cc1` (stereo not shown) [Fenoldopam mesylate], 0%; under `CC(C(=O)O)c1cccc(Oc2ccccc2)c1` (stereo not shown) [Fenoprofen calcium hydrate], 8.96%.
The same measure, in the same setting: as for `O=C1NCC2(CCN(CCc3ccccc3)CC2)O1` [Fenspiride HCl], the figure is 26.5%; as for `Clc1ccc(C(Cn2ccnc2)OCc2ccc(Sc3ccccc3)cc2)c(Cl)c1` (stereo not shown) [Fenticonazole Nitrate], 0%.
Same read-out and setting: under `CC(C)C(=O)Oc1ccc(CO)cc1[C@H](CCN(C(C)C)C(C)C)c1ccccc1` [Fesoterodine Fumarate] stands 0%; under `CC(C)(C(=O)O)c1ccc(C(O)CCCN2CCC(C(O)(c3ccccc3)c3ccccc3)CC2)cc1` (stereo not shown) [Fexofenadine HCl], 9.61%; under `CCc1c(Cl)c(O)c(Cl)c(O)c1C(=O)O[C@H]1[C@H](O)[C@H](OC)[C@H](OC/C2=C\C=C\C[C@H](O)/C(C)=C/[C@H](CC)[C@@H](O[C@@H]3OC(C)(C)[C@@H](OC(=O)C(C)C)[C@H](O)[C@@H]3O)/C(C)=C/C(C)=C/C[C@@H]([C@@H](C)O)OC2=O)O[C@@H]1C` [Fidaxomicin], 5.76%.
Turning to `O=C(Nc1nc2cccc(-c3ccc(CN4CCS(=O)(=O)CC4)cc3)n2n1)C1CC1` [Filgotinib (GLPG0634)], the inhibition at 100 µM was found to be 17%.
Same read-out and setting: under `CCCCc1nc(C)c(CC(=S)N(C)C)c(=O)n1Cc1ccc(-c2ccccc2-c2nnn[nH]2)cc1` [Fimasartan] stands 22.3%.
With `CC(C)(C)NC(=O)[C@H]1CC[C@H]2[C@@H]3CC[C@H]4NC(=O)C=C[C@]4(C)[C@H]3CC[C@]12C` [Finasteride], the inhibition at 100 µM came to 0%.
Consider `CCCCCCCCc1ccc(CCC(N)(CO)CO)cc1` [Fingolimod (FTY720) HCl], for which the inhibition at 100 µM was found to be 33%.
For `CN1CC[C@H](c2c(O)cc(O)c3c(=O)cc(-c4ccccc4Cl)oc23)[C@H](O)C1` [Flavopiridol (Alvocidib)], the inhibition at 100 µM worked out at 50.4%.
On the same count and under the same terms, as for `Cc1c(-c2ccccc2)oc2c(C(=O)OCCN3CCCCC3)cccc2c1=O` [Flavoxate HCl], the figure is 0%.
On to `O=c1[nH]c2ccccc2n1CCN1CCN(c2cccc(C(F)(F)F)c2)CC1` [Flibanserin], for which the inhibition at 100 µM came to 0%.
The same measure, in the same setting: as for `CCC(=O)c1c(O)cc(O)cc1O` [Flopropione], the figure is 7.24%; as for `CS(=O)(=O)c1ccc([C@@H](O)[C@@H](CF)NC(=O)C(Cl)Cl)cc1` [Florfenicol], 30.4%; as for `O=c1[nH]c(=O)n([C@H]2C[C@H](O)[C@@H](CO)O2)cc1F` [Floxuridine], 0%.
Same read-out and setting: as for `COC(=O)Nc1nc2cc(C(=O)c3ccc(F)cc3)ccc2[nH]1` [Flubendazole], the figure is 4.36%.
Same read-out and setting: as for `Cc1onc(-c2c(F)cccc2Cl)c1C(=O)N[C@@H]1C(=O)N2[C@@H]1SC(C)(C)[C@@H]2C(=O)O` [Flucloxacillin sodium], the figure is 1.41%.
Take `OC(Cn1cncn1)(Cn1cncn1)c1ccc(F)cc1F` [Fluconazole]: the inhibition at 100 µM was 16.6%.
The same measure, in the same setting: under `Nc1nc(=O)[nH]cc1F` [Flucytosine] stands 0%; under `Nc1nc(F)nc2c1ncn2[C@@H]1O[C@H](CO)[C@@H](O)[C@@H]1O` [Fludarabine], 12.7%; under `CC(=O)OCC(=O)[C@@]1(O)CC[C@H]2[C@@H]3CCC4=CC(=O)CC[C@]4(C)[C@@]3(F)[C@@H](O)C[C@@]21C` [Fludrocortisone acetate], 0%.
On the same count and under the same terms, under `O=C(O)c1ccccc1Nc1cccc(C(F)(F)F)c1` [Flufenamic acid] stands 3.41%.
Still for that read-out and setting: under `CCOC(=O)c1ncn2c1CN(C)C(=O)c1cc(F)ccc1-2` [Flumazenil] stands 5.44%.
On to `CC1CCc2cc(F)cc3c(=O)c(C(=O)O)cn1c23` (stereo not shown) [Flumequine], for which the inhibition at 100 µM amounted to 0%.
Still for that read-out and setting: as for `C[C@@H]1C[C@H]2[C@@H]3C[C@H](F)C4=CC(=O)C=C[C@]4(C)[C@@]3(F)[C@@H](O)C[C@]2(C)[C@@]1(O)C(=O)CO` [Flumethasone], the figure is 28.1%; as for `Cc1c(Nc2ncccc2C(=O)O)cccc1C(F)(F)F` [Flunixin Meglumin], 0%; as for `CC1(C)O[C@@H]2C[C@H]3[C@@H]4C[C@H](F)C5=CC(=O)C=C[C@]5(C)[C@@]4(F)[C@@H](O)C[C@]3(C)[C@]2(C(=O)CO)O1` [Fluocinolone Acetonide], 0%.
Still for that read-out and setting: as for `CC(=O)OCC(=O)[C@@]12OC(C)(C)O[C@@H]1C[C@H]1[C@@H]3C[C@H](F)C4=CC(=O)C=C[C@]4(C)[C@@]3(F)[C@@H](O)C[C@@]12C` [Fluocinonide], the figure is 24.1%; as for `O=C1OC2(c3ccc(O)cc3Oc3cc(O)ccc32)c2ccccc21` [Fluorescein], 24.9%; as for `CC(=O)O[C@]1(C(C)=O)CC[C@H]2[C@@H]3C[C@H](C)C4=CC(=O)C=C[C@]4(C)[C@@]3(F)[C@@H](O)C[C@@]21C` [Fluorometholone Acetate], 22.8%.
The same measure, in the same setting: as for `O=c1[nH]cc(F)c(=O)[nH]1` [Fluorouracil (5-Fluoracil, 5-FU)], the figure is 0%.
Consider `OCCN1CCN(CC/C=C2/c3ccccc3Sc3ccc(C(F)(F)F)cc32)CC1` [Flupenthixol dihydrochloride], for which the inhibition at 100 µM worked out at 12.3%.
The same measure, in the same setting: as for `CCOC(=O)Nc1ccc(NCc2ccc(F)cc2)nc1N` [Flupirtine maleate], the figure is 4.99%; as for `CC(C(=O)O)c1ccc(-c2ccccc2)c(F)c1` (stereo not shown) [Flurbiprofen], 2.76%; as for `CC(C)C(=O)Nc1ccc([N+](=O)[O-])c(C(F)(F)F)c1` [Flutamide], 0%.
Take `CCC(=O)O[C@]1(C(=O)SCF)[C@H](C)C[C@H]2[C@@H]3C[C@H](F)C4=CC(=O)C=C[C@]4(C)[C@@]3(F)[C@@H](O)C[C@@]21C` [Fluticasone propionate]: the inhibition at 100 µM came to 9.66%.
Still for that read-out and setting: as for `COCCCC/C(=N\OCCN)c1ccc(C(F)(F)F)cc1` [Fluvoxamine maleate], the figure is 0%; as for `Nc1nc(=O)c2nc(CNc3ccc(C(=O)N[C@@H](CCC(=O)O)C(=O)O)cc3)cnc2[nH]1` [Folic acid], 11.4%.
Same read-out and setting: as for `Cc1cn[nH]c1` [Fomepizole], the figure is 0%.
